Structures can show the parent of a compound that is named as a salt.
Tested on: restless legs syndrome
Assay: Oral preparation given to patients diagnosed with restless legs syndrome
Type: in vivo, human
Settings: 10 μg oral soft capsule; for time until abnormal sensation disappeared after taking the preparation: RLS patient
Protocol: A solution containing 10 μg of (−)-17-(cyclopropylmethyl)-3,14β-dihydroxy-4,5α-epoxy-6β[N-methyl-trans-3-(3-furyl)acrylamide]morphinan hydrochloric acid salt 1 [drawing 10]
was encapsulated into a soft capsule made of gelatin to obtain an oral preparation. This oral preparation was administered to two patients who had been diagnosed as restless legs syndrome. Both of the two patients complained abnormal itchy sensation on the lower limbs and sleep is sometimes disturbed. By taking the oral preparation, the abnormal sensation disappeared 2 hours after taking the preparation in one patient, and 4 hours after taking the preparation in another patient.

With `CN(C(=O)/C=C/c1ccoc1)[C@@H]1CC[C@@]2(O)C3Cc4ccc(O)c5c4[C@@]2(CCN3CC2CC2)[C@H]1O5` (single isomer, unassigned; (-)) [Compound 1, (−)-17-(cyclopropylmethyl)-3,14β-dihydroxy-4,5α-epoxy-6β[N-methyl-trans-3-(3-furyl)acrylamide]morphinan hydrochloric acid salt] the “time until abnormal sensation disappeared after taking the preparation” value (another patient) was 4 h, the “time until abnormal sensation disappeared after taking the preparation” value (one patient) was 2 h and the “duration of the effect for eliminating the abnormal sensation” value (both of the two RLS patients) was at least 24 h. The “sleep disturbance in the night” value (both of the two RLS patients) was “sleep disturbance did not occur” and the “therapeutic effect against restless legs syndrome” value (two RLS patients) was “clearly had therapeutic effect against restless legs syndrome”.

Source: US20040116456A1, “Remedies for psychoneurosis” (priority 2001, published 2004)
